Experimental data reported in PubChem BioAssay (NCI).
Where “and” joins values, the source holds several entries; their conditions need not be identical. Identical values can stand only once.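 Each compound was tested at five concentrations against cells in 96-well plates for 48 hours. Here, GI50 denotes the concentration required for 50% inhibition of growth. At the TGI there is no net growth.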

What was measured:
Assay in all cases: inhibition of tumour cell growth, NCI panel, 48 h
PC-3 prostate = system: PC-3 prostate
DU-145 prostate = system: DU-145 prostate
OVCAR-4 ovarian = system: OVCAR-4 ovarian
NCI-H522 lung = system: NCI-H522 lung
SNB-75 CNS = system: SNB-75 CNS
A498 renal = system: A498 renal
EKVX NSCLC = system: EKVX NSCLC
SK-MEL-28 melanoma = system: SK-MEL-28 melanoma
RPMI-8226 leukemia = system: RPMI-8226 leukemia
HCT-116 colon = system: HCT-116 colon

Row | SMILES | GI50 (PC-3 prostate) | TGI (PC-3 prostate) | GI50 (DU-145 prostate) | TGI (DU-145 prostate) | GI50 (OVCAR-4 ovarian) | TGI (OVCAR-4 ovarian) | GI50 (NCI-H522 lung) | TGI (NCI-H522 lung) | GI50 (SNB-75 CNS) | TGI (SNB-75 CNS) | GI50 (A498 renal) | TGI (A498 renal) | GI50 (EKVX NSCLC) | TGI (EKVX NSCLC) | GI50 (SK-MEL-28 melanoma) | TGI (SK-MEL-28 melanoma) | GI50 (RPMI-8226 leukemia) | TGI (RPMI-8226 leukemia) | GI50 (HCT-116 colon) | TGI (HCT-116 colon)
1 | Cc1nc2cccc(NCc3ccc(C(=O)NO)cc3)c2c(=O)n1-c1ccccc1 | 1.9 µM | 6.14 µM | 2.7 µM | 11.9 µM | 2.67 µM | 9.64 µM | 1.29 µM | 2.61 µM | 1.97 µM | 5.46 µM | 1.7 µM | 3.28 µM | 2.08 µM | 4.9 µM | 1.97 µM | 3.92 µM | 2.39 µM | > 100 µM | 1.35 µM | 4.76 µM
2 | O=c1cc(-c2ccccc2)nc2n1CCN2Cc1ccccc1 | 32.3 µM | > 100 µM | 34 µM | > 100 µM | 74.4 µM | > 100 µM | 20.8 µM | 56.1 µM | 60.5 µM | > 100 µM | 10.1 µM | 34.2 µM | 30.5 µM | 96.1 µM | 60 µM | > 100 µM | 15.6 µM | 39.9 µM | 31.6 µM | > 100 µM
3 | CCOC(=O)Oc1c(OC)cc(C(=O)O[C@@H]2C[C@@H]3CN4CCc5c([nH]c6cc(OC)ccc56)[C@H]4C[C@@H]3[C@H](C(=O)OC)[C@H]2OC)cc1OC | 4.92 µM | 33.8 µM | 13.5 µM | 95.8 µM | 4.72 µM | 19.8 µM | 5.18 µM | 18.7 µM | 6.64 µM | 24.5 µM | 7.38 µM | > 100 µM | 5.78 µM | 35.9 µM | 6.32 µM | 18.8 µM | 2.23 µM | 10.8 µM | 1.73 µM | 3.58 µM
4 | N=C(N)CCCCCCCCC(=N)N | 37 µM | > 100 µM | 20.8 µM | > 100 µM | 44.4 µM | > 100 µM | 41.4 µM | > 100 µM | 29.1 µM | > 100 µM | 11.6 µM | 68.5 µM | 9.51 µM | > 100 µM | 58.1 µM | > 100 µM | 31.1 µM | > 100 µM | 22.8 µM | > 100 µM
5 | CC1=Cc2cc3[n-]c(cc4nc(cc5[n-]c(cc1n2)cc5C)C(C)=C4CCC(=O)O)c(CCC(=O)O)c3C.[Pd+2] | > 100 µM | > 100 µM | > 100 µM | > 100 µM | – | > 46.8 µM | – | > 26.7 µM | 6.8 µM | 29.9 µM | 12.6 µM | 29.8 µM | > 28.9 µM | > 54.6 µM | 3.06 µM | 12.7 µM | 17.3 µM | 36.9 µM | 24.1 µM | 41.4 µM
6 | C=C1C(=O)O[C@H]2[C@H]1CC/C(Cn1cc(-c3ccccc3)nn1)=C\CC[C@@]1(C)O[C@@H]21 | 5.65 µM | 12 µM | 2.19 µM | 7.92 µM | 3.22 µM | 12.1 µM | 0.811 µM | 1.66 µM | 6.21 µM | 13 µM | 7.8 µM | 15 µM | 6.87 µM | 13.3 µM | 1.06 µM | 2.48 µM | 1.71 µM | 11.1 µM | 1.17 µM | 2.7 µM
7 | O=C1c2ccccc2-c2c1c1ccccc1c(=O)n2CCNCCNCCn1c2c(c3ccccc3c1=O)C(=O)c1ccccc1-2 | 0.701 µM | 19.3 µM | 0.179 µM | 4.61 µM | 1.43 µM | 14.9 µM | 2.28 µM | – | 7.95 µM | 47.5 µM | 14.4 µM | 29.9 µM | 10.6 µM | 27.2 µM | 2.9 µM | 24.5 µM | 0.011 µM | 1.24 µM | 0.0159 µM | 1.42 µM
8 | C[C@H]1CCC/C=C/[C@@H]2C[C@H](O)C[C@H]2[C@H](O)[C@@H](S(=O)CCN(C)C)CC(=O)O1 (stereo not given in full) | 0.26 µM | > 23.2 µM | 0.555 µM | > 100 µM | 0.219 µM | > 100 µM | 0.0677 µM | 0.191 µM | 0.0332 µM | – | 0.116 µM | – | 0.384 µM | – | 0.586 µM | > 100 µM | 0.387 µM | – | 0.279 µM | 1.19 µM
9 | CC1(C)OCC(CO)(Nc2nc(N3CC3)nc(N3CC3)n2)CO1 | – | > 100 µM | – | 8.91 µM | – | 41.9 µM | – | 33.8 µM | – | 33.1 µM | – | 24.2 µM | – | 90.8 µM | – | 53 µM | – | > 100 µM | – | 27.5 µM
10 | Cc1[nH]c(/C=C2\C(=O)Nc3ccc(F)cc32)c(C)c1C(=O)NC[C@H](O)CN1CCOCC1 | 2.64 µM | > 10 µM | 3.65 µM | > 10 µM | 7.95 µM | > 10 µM | > 10 µM | > 10 µM | 7.33 µM | > 10 µM | 3.29 µM | > 10 µM | 8.02 µM | > 10 µM | 4.16 µM | > 10 µM | 3.54 µM | > 10 µM | 2.42 µM | > 10 µM
11 | C/C=C(\C)C(=O)O[C@H]1C=CC(=O)O[C@H]1CNC(=O)[C@H](C)O | 24.5 µM | 79.4 µM | 31.7 µM | > 100 µM | 17.3 µM | 36.1 µM | 11.6 µM | 31 µM | 22.3 µM | 48.8 µM | 22.8 µM | 43.7 µM | 26.2 µM | 67.4 µM | 17.4 µM | 32.4 µM | 21.3 µM | 45.7 µM | 13.1 µM | 26 µM
12 | COc1ccc(/C=C\c2cc(OC)c(OC)c(OC)c2)cc1OCC(=O)Nc1nc2ccc(C(F)(F)F)cc2s1 | 4.32 µM | > 100 µM | 2.51 µM | 6.56 µM | 4.66 µM | > 100 µM | 2.89 µM | 19.6 µM | 1.58 µM | 6.47 µM | 2.81 µM | 18.6 µM | 6.25 µM | > 100 µM | 3 µM | > 100 µM | 5.48 µM | > 100 µM | 3.29 µM | > 100 µM
13 | COc1c(O)ccc2c1CN1CCc3cc4c(cc3C1C2)OCO4 (stereo not given) | – | > 100 µM | – | > 100 µM | – | > 100 µM | – | 36.1 µM | – | 65.3 µM | – | > 78.9 µM | – | > 100 µM | – | > 100 µM | – | > 100 µM | – | > 100 µM
14 | O=C1CCC2(C=C(Br)C(=O)C(Br)=C2)O1 | 15.8 µM | 31.3 µM | 5.44 µM | 15.5 µM | 2.08 µM | 4.34 µM | 0.31 µM | 1.05 µM | 13.2 µM | 26 µM | 16.6 µM | 30.3 µM | 5.29 µM | 12.6 µM | 1.69 µM | 3.87 µM | 10.7 µM | 46 µM | 1.69 µM | 3.12 µM
15 | CCN(CC)CCCCCCCNc1c2ccc(Cl)cc2nc2ccc(OC)cc12 | 0.843 µM | 2.85 µM | 0.66 µM | 2 µM | 0.913 µM | 2.9 µM | 1.2 µM | 2.83 µM | 1.29 µM | 2.62 µM | 1.2 µM | 2.51 µM | 1.51 µM | 4.99 µM | 1.91 µM | 3.64 µM | 0.337 µM | 1.3 µM | 0.285 µM | 0.801 µM
16 | Cc1ccc2c(=O)c3cccc(CC(=O)O)c3oc2c1C | > 100 µM | > 100 µM | > 100 µM | > 100 µM | > 100 µM | > 100 µM | > 100 µM | > 100 µM | > 100 µM | > 100 µM | 70.6 µM | > 100 µM | > 100 µM | > 100 µM | > 100 µM | > 100 µM | > 100 µM | > 100 µM | > 100 µM | > 100 µM
17 | COc1ccc(-c2cn[nH]c2-c2cc(OC)c(OC)c(OC)c2)cc1N | < 0.01 µM and 0.0339 µM | > 100 µM | < 0.01 µM and 0.0508 µM | > 100 µM | 0.013 µM and 0.0877 µM | > 100 µM | < 0.01 µM | – | < 0.01 µM | > 100 µM | < 0.01 µM | – | < 0.01 µM and 0.0673 µM | > 100 µM | – | > 100 µM | < 0.01 µM and 0.0535 µM | 30.8 µM and 54.1 µM | < 0.01 µM and 0.0344 µM | > 100 µM
18 | Cc1cc(S(=O)(=O)Nc2nnc(-c3ccccc3)c(-c3ccccc3)n2)c(SCc2ccccc2)cc1Cl | 21.2 µM | 58 µM | 15.2 µM | 30.7 µM | 19.9 µM | 37.2 µM | 21.8 µM | 53.7 µM | 29.4 µM | 49 µM | 19.8 µM | 39.1 µM | 5.68 µM | 25.2 µM | 22.6 µM | 40.7 µM | 11.5 µM | 52.8 µM | 19.8 µM | 38.9 µM
19 | OCCCCC#Cc1ccccc1C#Cc1ccccc1C(F)(F)F | 8.77 µM | 21 µM | 6.16 µM | 19 µM | 18.4 µM | 36.4 µM | 9.13 µM | 22.7 µM | 18.7 µM | 35.9 µM | 5.79 µM | 19.8 µM | 12.7 µM | 26.8 µM | 13.2 µM | 28.5 µM | 3.84 µM | 26 µM | 6.46 µM | 21.3 µM
